According to patent publication US20060183721A1, “2-Methylene-19-nor-(20S-24epi)-1alpha,25-dihydroxyvitamin D2” (Wisconsin Alumni Research Foundation, priority 2005, published 2006):

Key:
[1] = target: T1, full-length recombinant rat vitamin D receptor (Rattus norvegicus, UniProt P13053); test: Vitamin D receptor competitive binding with [3H]-1,25-(OH)2-D3; settings: compared with native hormone 1,25(OH)2D3; FIG. 1
T1 construct: Full-length recombinant rat receptor was expressed in E. coli BL21(DE3) Codon Plus RIL cells; histidine tag (C); made in house; host or cells: E. coli BL21(DE3) Codon Plus RIL
T1 sequence (P13053 1-423): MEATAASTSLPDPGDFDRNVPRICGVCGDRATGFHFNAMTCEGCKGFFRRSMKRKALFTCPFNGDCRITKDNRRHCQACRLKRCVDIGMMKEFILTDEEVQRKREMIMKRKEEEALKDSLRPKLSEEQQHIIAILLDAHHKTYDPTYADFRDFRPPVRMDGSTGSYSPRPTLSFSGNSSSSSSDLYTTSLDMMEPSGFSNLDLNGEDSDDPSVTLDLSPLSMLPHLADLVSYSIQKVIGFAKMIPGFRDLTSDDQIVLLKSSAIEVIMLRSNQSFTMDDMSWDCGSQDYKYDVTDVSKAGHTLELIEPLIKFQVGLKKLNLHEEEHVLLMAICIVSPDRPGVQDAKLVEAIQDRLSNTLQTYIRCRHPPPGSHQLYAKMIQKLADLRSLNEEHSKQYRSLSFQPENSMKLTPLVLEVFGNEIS
Text: FIG. 1 is a graph comparing the relative activity of (20S/24R) 2-MD2 and 1,25(OH)2D3 to compete for binding with [^3H]-1,25-(OH)2-D3 to the full-length recombinant rat vitamin D receptor.
Full-length recombinant rat receptor was expressed in E. coli BL21(DE3) Codon Plus RIL cells and purified to homogeneity using two different column chromatography systems. The first system was a nickel affinity resin that utilizes the C-terminal histidine tag on this protein. The protein that was eluted from this resin was further purified using ion exchange chromatography (S-Sepharose Fast Flow). Aliquots of the purified protein were quick frozen in liquid nitrogen and stored at −80° C. until use. For use in binding assays, the protein was diluted in TEDK50 (50 mM Tris, 1.5 mM EDTA, pH 7.4, 5 mM DTT, 150 mM KCl) with 0.1% Chaps detergent. […]
Unlabeled ligands were dissolved in ethanol and the concentrations determined using UV spectrophotometry (1,25(OH)2D3: molar extinction coefficient=18,200 and λmax=265 nm; Analogs: molar extinction coefficient=42,000 and λmax=252 nm). […]
Radiolabeled and unlabeled ligands were added to 100 mcl of the diluted protein at a final ethanol concentration of ≦10%, mixed and incubated overnight on ice to reach binding equilibrium. […] Total binding was determined from the tubes containing only radiolabeled ligand.

[2] = system: Human promyelocytic leukemia (HL60) cells; test: HL-60 cell differentiation (nitro blue tetrazolium reduction); format: cell-based; settings: compared with 1,25-(OH)2D3; FIG. 2
Experimental: FIG. 2 is a graph comparing the percent HL-60 cell differentiation as a function of the concentration of (20S/24R) 2-MD2 with that of 1,25(OH)2D3.
The study drugs were dissolved in ethanol and the concentrations determined using UV spectrophotometry. Serial dilutions were prepared so that a range of drug concentrations could be tested without changing the final concentration of ethanol (≦0.2%) present in the cell cultures.
Human promyelocytic leukemia (HL60) cells were grown in RPMI-1640 medium containing 10% fetal bovine serum. The cells were incubated at 37° C. in the presence of 5% CO2.
HL60 cells were plated at 1.2×10^5 cells/ml. Eighteen hours after plating, cells in duplicate were treated with drug. Four days later, the cells were harvested and a nitro blue tetrazolium reduction assay was performed (Collins et al., 1979; J. Exp. Med. 149:969-974). The percentage of differentiated cells was determined by counting a total of 200 cells and recording the number that contained intracellular black-blue formazan deposits. Verification of differentiation to monocytic cells was determined by measuring phagocytic activity (data not shown).

[3] = system: 24-hydroxylase (24Ohase) gene promoter in ROS 17/2.8 (bone) cells; test: In vitro transcription assay (24-hydroxylase promoter luciferase reporter); format: cell-based; settings: compared with 1,25-(OH)2D3; ROS 17/2.8 cells, 24Ohase-luciferase; FIG. 3
Experimental: FIG. 3 is a graph comparing the in vitro transcription activity of (20S/24R) 2-MD2 with that of 1,25(OH)2D3.
Transcription activity was measured in ROS 17/2.8 (bone) cells that were stably transfected with a 24-hydroxylase (24Ohase) gene promoter upstream of a luciferase reporter gene (Arbour et al., 1998). Cells were given a range of doses. Sixteen hours after dosing the cells were harvested and luciferase activities were measured using a luminometer. RLU=relative luciferase units.

[4] = Bone calcium mobilization (serum calcium); format: in vivo, Sprague-Dawley rats; settings: compared with 1,25-(OH)2D3, rats, four consecutive ip doses, FIG. 4
Text: FIG. 4 is a bar graph comparing the bone calcium mobilization activity of (20S/24R) 2-MD2 with that of 1,25(OH)2D3.
(§1) Male, weanling Sprague-Dawley rats were placed on Diet 11 (Suda et al. J. Nutr. 100:1049, 1970) (0.47% Ca) diet+vitamins AEK for one week followed by Diet 11 (0.02% Ca)+AEK for 3 weeks. The rats were then switched to a diet containing 0.47% Ca for one week followed by two weeks on a diet containing 0.02% Ca. Dose administration began during the last week on 0.02% calcium diet. Four consecutive ip doses were given approximately 24 hours apart. Twenty-four hours after the last dose, blood was collected from the severed neck and the concentration of serum calcium determined as a measure of bone calcium mobilization. The first 10 cm of the intestine was also collected for intestinal calcium transport analysis using the everted gut sac method.

[5] = Intestinal calcium transport (everted gut sac method); format: in vivo, Sprague-Dawley rats; settings: compared with 1,25-(OH)2D3, rats, four consecutive ip doses, FIG. 5
Text: FIG. 5 is a bar graph comparing the intestinal calcium transport activity of (20S/24R) 2-MD2 with that of 1,25(OH)2D3.
as §1

binding to the vitamin D receptor [1]: almost equal to the native hormone
SMILES: C=C1[C@H](O)CC(=C/C=C2\CCC[C@]3(C)C([C@@H](C)/C=C/[C@@H](C)C(C)(C)O)CC[C@@H]23)C[C@H]1O (stereo in doubt) [2-methylene-19-nor-(20S-24epi)-1α,25-dihydroxyvitamin D2]
inducing differentiation of HL-60 cells [2]: more activity than 1,25-(OH)2D3 | causing transcription [3]: more effective than 1,25-(OH)2D3 | bone calcium mobilizing activity [4]: more bone calcium mobilizing activity than 1,25-(OH)2D3 | intestinal calcium transport activity [5]: approximately equal to 1,25-(OH)2D3
